For 20 compounds, change in vivo and inhibition in vivo results are on record in patent publication US8901116B2, “Method for treating pain, anxiety or depression using carbamoyloxy alkanoyl piperazine compound” (SK Biopharmaceuticals Co., Ltd., priority 2007, dated 2014).

SMILES strings stand for the structures.

Holding throughout (format): in vivo
Experiment [1] concerns male ICR mouse. Kind of experiment: Hot plate test in mouse. To be noted: po, p.o, 1 hour after dosing, hot plate 55° C., read-out: Hot Plate Test Increase in latency of avoidance response. Here is the method:
A hot plate test is one of representative models for measuring an analgesic effect of drugs. A test material dissolved in a suitable vehicle was orally administered to a male ICR mouse weighing 25 to 30 g at an amount of 30 mg/kg. After 1 hour of the oral administration, the mouse was put on a hot plate (55° C.). A latency was recorded from the time right after a mouse is put on a hot plate to the time when avoidance responses (flinching, licking, jumping, etc.) to pain are observed from forefeet or rear legs of the mouse. The analgesic effect of the test material is represented by the ‘Increase in latency of avoidance response’ {[(Latency of avoidance response to pain of Test material-administered group−Latency of avoidance response to pain of vehicle-administered group)/(Latency of avoidance response to pain of Solvent-administered group)]×100%}.

In experiment [2] the test system is male ICR mouse. Put plainly: Elevated plus maze (EPM) test in mouse. As to conditions: po, p.o, 1 hour after dosing, 5 minutes observation, read-out: Elevated Plus Maze Change index in Open-Arm Time. The text has this: Elevated plus maze (EPM) is one of representative models that examine an anti-anxiety activity of a test material. Equipment used for an EPM test has a crossroad shape raised in a high position off the ground, and is configured in such a cliff shape that both sides of one road are protected with high walls and the other road is free from the wall. Among them, the road in the cliff shape is referred to as an ‘open arm,’ and the road protected by the walls is referred to as a ‘close arm.’ In this case, a level of the anxiety of a mouse may be measured by determining in which arm the mouse stays longer. In general, the mouse stays longer in the close arm than the open arm, but a mouse treated with a medicine showing an anti-anxiety effect stays relatively longer in the open arm. A test material dissolved in a suitable vehicle was orally administered to a male ICR mouse weighing 20 to 25 g at an amount of 10 mg/kg. After 1 hour of the oral administration, the mouse was put on the center of an EPM equipment to measure how long the mouse stays in the open arm within a time range of 5 minutes. The anti-anxiety effect of the test material is represented by the ‘Change index in Open-Arm Time’ {[(open arm duration in test material-administered group−open arm duration in vehicle-administered group)/(open arm duration in vehicle administered group)]×100%}.

Experiment [3] concerns male ICR mouse. Put plainly: Head twitch potentiation induced by 5-HTP (5-HTP potentiation test) in mouse. To be noted: po, 0.5 h, p.o, 5-HTP 80 mg/kg + Carbidopa 25 mg/kg i.p. 30 minutes after dosing, head twitches counted for 2 minutes, negative = 5-HT2A antagonist, read-out: 5-HTP Potentiation Increase rate in Head Twitch No. As for the experimental part:
When 5-hydroxy-L-tryptophan (5-HTP) is administered into a mouse, a head twitch phenomenon is observed since serotonin is increasingly secreted in the mouse. […] By using this principle, it is possible to search an effect of the representative antidepressant agent. A test material dissolved in a suitable vehicle was orally administered to a male ICR mouse weighing 20 to 25 g at an amount of 30 mg/kg. After 30 minutes of the oral administration, 5-HTP (80 mg/kg) and 5-HTP peripheral decarbozylase inhibitor ‘Carbidopa’ (25 mg/kg) were intraperitoneally administered to the mouse. After 30 minutes of the intraperitoneal administration, the mouse was put into an observation cage, and head twitches of the mouse were counted for 2 minutes. The anti-depression effect of the test material is represented by the ‘Increase rate in Head Twitch No.’ {[(Head Twitch No. of Test material-administered group−Head Twitch No. of vehicle-administered group)/(Head Twitch No. of vehicle-administered group)]×100%}. […] In addition to the selective serotonin reuptake inhibitor (SSRI) that has been widely used as an antidepressant agent in the clinical fields, it was tested that 5-HT2A antagonists such as nefazodone and trazodone also have an antidepressant effect.

For experiment [4], the system named is male ICR mouse. Put plainly: Acetic acid-induced writhing test in mouse. As to conditions: po, p.o, acetic acid i.p. 1 hour after dosing, writhing counted for 10 minutes, read-out: Writhing Test Suppression of pain response. As for the experimental part:
An acetic acid-induced writhing test is one of models for measuring an analgesic effect of drugs. A test material dissolved in a suitable vehicle was orally administered to a male ICR mouse weighing 30 to 35 g at an amount of 10 mg/kg. After 1 hour of the oral administration, […] of an aqueous 0.8% acetic acid solution was intraperitoneally injected into the male ICR mouse to induce the abdominal pain of the male ICR mouse. Right after the administration of acetic acid, the male ICR mouse was put into an empty cage, and the number of writhing behaviors of the mice was counted for 10 minutes. The term “writhing” represents a reflex action in which the mouse overtly extends its abdomen by stretching its hind legs due to the abdominal pain. The analgesic effect of the test material is represented by the ‘suppression of pain response’ {[(Writhing number of vehicle-administered group−Writhing number of Test material—administered group)/(Writhing number of Solvent-administered group)]×100%}.

Take `COc1ccc(N2CCN(C(=O)C[C@H](OC(N)=O)c3ccccc3)CC2)cc1OC` [Example 65, (S)-carbamic acid 3-[4-(3,4-dimethoxy-phenyl)-piperazin-1-yl]-3-oxo-1-phenyl-propyl ester]: the values for the change in vivo at 30 mg/kg with male ICR mouse [1] and in the experiment with male ICR mouse [3] were 38.6% and 91.6%, respectively. Moreover, the change in vivo at 10 mg/kg in the experiment with male ICR mouse [2] amounted to 74.7%.

With `COc1ccc(N2CCN(C(=O)CC(OC(N)=O)c3ccc(F)cc3)CC2)cc1OC` (stereo not drawn) [Example 7, carbamic acid 3-[4-(3,4-dimethoxy-phenyl)-piperazin-1-yl]-1-(4-fluoro-phenyl)-3-oxo-propyl ester], the change in vivo at 30 mg/kg in the experiment on male ICR mouse [1] was determined as 14.7%. The inhibition in vivo at 10 mg/kg in the experiment with male ICR mouse [4] was 40.9%.

For `NC(=O)OC(CC(=O)N1CCN(c2ccccc2)CC1)c1cccc(C(F)(F)F)c1` (stereo not drawn) [Example 45, carbamic acid 1-(3-trifluormethyl-phenyl)-3-oxo-3-(4-phenyl-piperazin-1-yl)-propyl ester], the change in vivo at 30 mg/kg came out at 6.9% with male ICR mouse [1] and 167% in the experiment on male ICR mouse [3]. The inhibition in vivo at 10 mg/kg in the experiment with male ICR mouse [4] was 19%. In the experiment on male ICR mouse [2], the change in vivo at 10 mg/kg was 74.5%.

Turning to `NC(=O)OC1c2ccccc2CCC1C(=O)N1CCN(c2ccccc2)CC1` (stereo not drawn) [Example 52, carbamic acid-2-(4-phenyl-piperazine-1-carbonyl)-1,2,3,4-tetrahydro-naphthalene-1-yl ester], the change in vivo at 30 mg/kg is 20.5% in the experiment on male ICR mouse [1] and 40% in the experiment on male ICR mouse [3]. Further, in the experiment with male ICR mouse [4], the inhibition in vivo at 10 mg/kg is 26.8%. In addition, in the experiment with male ICR mouse [2], the change in vivo at 10 mg/kg amounted to 14.6%.

For the compound `NC(=O)OC(CC(=O)N1CCN(c2cc(Cl)cc(Cl)c2)CC1)c1ccccc1` (stereo not drawn) [Example 10, carbamic acid 3-[4-(3,5-dichloro-phenyl)-piperazin-1-yl]-3-oxo-1-phenyl-propyl ester], the values for the change in vivo at 30 mg/kg in the experiment on male ICR mouse [1] and in the experiment with male ICR mouse [3] were 14.8% and 85.7%, respectively. The inhibition in vivo at 10 mg/kg in the experiment with male ICR mouse [4] worked out at 26%. Also, the change in vivo at 10 mg/kg in the experiment with male ICR mouse [2] worked out at 27.3%.

`COc1ccc(N2CCN(C(=O)CC(OC(N)=O)c3ccccc3)CC2)cc1` (stereo not drawn) [Example 2, carbamic acid 3-[4-(4-methoxy-phenyl)-piperazin-1-yl]-3-oxo-1-phenyl-propyl ester]: the change in vivo at 30 mg/kg in the experiment with male ICR mouse [1] was 37.5%. The inhibition in vivo at 10 mg/kg with male ICR mouse [4] is 54.6%.

`NC(=O)OC(CC(=O)N1CCN(c2ccccc2)CC1)c1ccccc1[N+](=O)[O-]` (stereo not drawn) [Example 42, carbamic acid 1-(2-nitro-phenyl)-3-oxo-3-(4-phenyl-piperazin-1-yl)-propyl ester]: the change in vivo at 10 mg/kg with male ICR mouse [2] was found to be 27.3%. Also, the change in vivo at 30 mg/kg in the experiment with male ICR mouse [3] turned out to be 33.3%.

In the case of `NC(=O)OC(CC(=O)N1CCN(c2ccc(F)c(F)c2)CC1)c1ccccc1` (stereo not drawn) [Example 33, carbamic acid 3-[4-(3,4-difluoro-phenyl)-piperazin-1-yl]-3-oxo-1-phenyl-propyl ester], the change in vivo at 30 mg/kg with male ICR mouse [1] turned out to be 43.6%. Moreover, the inhibition in vivo at 10 mg/kg with male ICR mouse [4] stood at 74.5%.

As to `COc1ccc(N2CCN(C(=O)CC(OC(N)=O)c3ccccc3)CC2)cc1OC` (stereo not drawn) [Example 5, carbamic acid 3-[4-(3,4-dimethoxy-phenyl)-piperazin-1-yl]-3-oxo-1-phenyl-propyl ester], in the experiment on male ICR mouse [1], the change in vivo at 30 mg/kg was determined as 39.2%. The inhibition in vivo at 10 mg/kg in the experiment on male ICR mouse [4] amounted to 79.7%.

Regarding `NC(=O)OC(CC(=O)N1CCN(c2ccc(Cl)cc2)CC1)c1ccccc1` (stereo not drawn) [Example 38, carbamic acid 3-[4-(4-chloro-phenyl)-piperazin-1-yl]-3-oxo-1-phenyl-propyl ester], the change in vivo at 30 mg/kg in the experiment on male ICR mouse [1] came to 38.3%. Besides, the inhibition in vivo at 10 mg/kg in the experiment with male ICR mouse [4] is 66.1%.

On to `NC(=O)OC(CC(=O)N1CCN(c2ncc(Cl)cc2Cl)CC1)c1ccccc1` (stereo not drawn) [Example 26, carbamic acid 3-[4-(3,5-dichloro-pyridin-2-yl)-piperazin-1-yl]-3-oxo-1-phenyl-propyl ester], for which the change in vivo at 30 mg/kg with male ICR mouse [1] is 20.6%. Besides, the inhibition in vivo at 10 mg/kg with male ICR mouse [4] came out at 30.8%.

In the case of `COc1ccc(N2CCN(C(=O)C[C@H](OC(N)=O)c3ccccc3)CC2)cc1` [Example 69, (S)-carbamic acid 3-[4-(4-methoxy-phenyl)-piperazin-1-yl]-3-oxo-1-phenyl-propyl ester], the change in vivo at 30 mg/kg with male ICR mouse [1] was 22.9%; in the experiment with male ICR mouse [3], -14.3%. In the experiment with male ICR mouse [2], the change in vivo at 10 mg/kg was determined as 57.3%.

For the compound `COc1ccc(N2CCN(C(=O)CC(OC(N)=O)c3ccc(Cl)cc3)CC2)cc1OC` (stereo not drawn) [Example 6, carbamic acid 1-(4-chloro-phenyl)-3-[4-(3,4-dimethoxy-phenyl)-piperazin-1-yl]-3-oxo-propyl ester], the change in vivo at 30 mg/kg with male ICR mouse [1] stood at 11%. For the same compound, the inhibition in vivo at 10 mg/kg in the experiment with male ICR mouse [4] turned out to be 44.8%.

As for `COc1ccc(N2CCN(C(=O)CC(OC(N)=O)c3ccccc3)CC2)c(OC)c1` (stereo not drawn) [Example 9, carbamic acid 3-[4-(2,4-dimethoxy-phenyl)-piperazin-1-yl]-3-oxo-1-phenyl-propyl ester], the change in vivo at 30 mg/kg in the experiment on male ICR mouse [1] is 16.4%. Also, the inhibition in vivo at 10 mg/kg in the experiment with male ICR mouse [4] is 33.1%.

As for `NC(=O)OC(CC(=O)N1CCN(c2ccc3c(c2)OCO3)CC1)c1ccccc1` (stereo not drawn) [Example 14, carbamic acid 3-(4-benzo[1,3]dioxol-5-yl-piperazin-1-yl)-3-oxo-1-phenyl-propyl ester], the change in vivo at 30 mg/kg in the experiment on male ICR mouse [1] was determined as 17.8%. Moreover, in the experiment with male ICR mouse [4], the inhibition in vivo at 10 mg/kg was 64%.

For `NC(=O)OC(CC(=O)N1CCN(c2ncccn2)CC1)c1ccccc1` (stereo not drawn) [Example 25, carbamic acid 3-oxo-1-phenyl-3-(4-pyrimidin-2-yl-piperazin-1-yl)-propyl ester], the change in vivo at 30 mg/kg with male ICR mouse [1] stood at 15.9%. In addition, the inhibition in vivo at 10 mg/kg in the experiment on male ICR mouse [4] came to 59.3%.

Consider `COc1ccc(N2CCN(C(=O)CC(OC(N)=O)c3ccc(C)cc3)CC2)cc1OC` (stereo not drawn) [Example 8, carbamic acid 3-[4-(3,4-dimethoxy-phenyl)-piperazin-1-yl]-3-oxo-1-p-tolyl-propyl ester], for which the change in vivo at 30 mg/kg in the experiment on male ICR mouse [1] was 10.9%. In addition, the inhibition in vivo at 10 mg/kg in the experiment with male ICR mouse [4] was 30.1%.

Consider `COc1ccc(N2CCN(C(=O)CCC(OC(N)=O)c3ccccc3)CC2)cc1OC` (stereo not drawn) [Example 41, carbamic acid 4-[4-(3,4-dimethoxy-phenyl)-piperazin-1-yl]-4-oxo-1-phenyl-butyl ester], for which the change in vivo at 30 mg/kg in the experiment on male ICR mouse [1] worked out at 28.7%. In the experiment with male ICR mouse [4], the inhibition in vivo at 10 mg/kg was determined as 31.2%.

As to `NC(=O)OC(CC(=O)N1CCN(c2ccccn2)CC1)c1ccccc1` (stereo not drawn) [Example 24, carbamic acid 3-oxo-1-phenyl-3-(4-pyridin-2-yl-piperazin-1-yl)-propyl ester], the change in vivo at 30 mg/kg with male ICR mouse [1] came out at 28.1%. Besides, the inhibition in vivo at 10 mg/kg in the experiment with male ICR mouse [4] was found to be 61.2%.

As to `COc1ccc(C(CC(=O)N2CCN(c3ccccc3)CC2)OC(N)=O)cc1` (stereo not drawn) [Example 15, carbamic acid 1-(4-methoxy-phenyl)-3-oxo-3-(4-phenyl-piperazin-1-yl)-propyl ester], in the experiment on male ICR mouse [1], the change in vivo at 30 mg/kg was found to be 17.9%. Besides, the inhibition in vivo at 10 mg/kg with male ICR mouse [4] amounted to 35.1%.
